Key:
[1] = Vitamin B6 (PLP; pyridoxal phosphate) trapping; assay type: biochemical; settings: 500 μM compound, 50 μM PLP, PBS
Experimental: To a solution of vitamin B6, the compound of this invention is added, and after a certain period of time, an amount of vitamin B6 remained is determined.
4-(5-phenyltetrazol-1-ylmethyl)-morpholine (Compound 1), 5-methyl-1-(5-phenyltetrazol-1-ylmethyl)-3a,6a-dihydro-1H-pyrrolo[3,4-d][1,2,3]triazol-4,6-dione (Compound 2) and (5-phenyltetrazol-1-yl)methanol (Compound 3) as well as aminoguanidine as the positive control were each dissolved in DMSO in a designed concentration to make a sample solution. DMSO itself was used as the negative control. In addition, pyridoxal phosphate (PLP) was dissolved in purified-water to make a designed concentration. PBS was added to each of the test compound, the positive control and the negative control, to make a final concentration of 500 μM. The PLP solution as above prepared was added to each of the resultant solution to make a final concentration of 50 μM for preparation of the PLP reaction solution. Using HPLC, the amount of PLP in the PLP reaction solution was determined after 0.1 and 10 hours, from which the PLP trapping amount of each test compound was ascertained.
The analysis of PLP using HPLC was carried out by separation with reverse-phase C18 column (4.6×250 mm, 5 μm; Waters) and by using a fluorescence detector (RF-10A; Shimazu Seisakusho; excitation wavelength, 300 nm and fluorescence wavelength, 400 nm). In the mobile phase, the flow rate was 0.6 mL/min and the concentration of buffer B was varied from 0% to 3% in 25 minutes (buffer A: 0.10% trifluoroacetic acid; buffer B: 80% acetonitrile containing 0.08% trifluoroacetic acid).

[2] = system: glomerulonephritis model with mesangial proliferative nephritis; assay: Effect against glomerulonephritis (anti Thy-1 antibody model); assay type: in vivo, rat; settings: 1 mg/kg once a day, 5 days
Experimental: 1.2 mg/kg of OX-7, anti Thy-1 antibody, was administered to wistar rat (male, body weight 150 g, 6 weeks old) in tail vein to prepare typical glomerulonephritis model with mesangial proliferative nephritis. After the administration of anti Thy-1 antibody, test compound (4-(5-phenyltetrazol-1-ylmethyl)-morpholine (compound 1), 1 mg/kg body weight, once a day) was suspended in 0.5% carboxymethylcellulose, was coercively administered for 5 days continuously, on sixth day sampled, kidney was obtained, and analysed pathologically (count the number of glomerular cells). In particular, cells were stained by PAS according to conventional method, the stained image was captured by 3CCD camera (Olympus), and then analyzed using softwares, Image Graver PCI (FUJI shashin film) and Mac Aspect (Mitani kabushiki kaisha). Also, biochemical analysis of blood and urine was carried out (contract clinical analysis organization: SR L).

[3] = Suppressing effect on the nitration of tyrosine with peroxynitrite; assay type: biochemical; settings: in comparison with pyridoxamine as positive control; 0.1, 0.5, 2.5 and 5 mM
Experimental: According to the method of Pannala, A.S. et al. (Free Radic. Biol. Med., 24:594-606, 1998), the examination was carried out. Namely, tyrosine (final concentration: 100 μM), the test compound (final concentration: 0.1, 0.5, 2.5 and 5 mM) and peroxynitrite (Dojin Kagaku) (final concentration: 500 μM) were dissolved in 200 mM of phosphate buffer (pH7.4) (liquid volume 500 μL) and incubated at 37° C. for 15 minutes. After incubation, the nitrotyrosine formation was determined with HPLC in the following manner: after a predifined time, the reaction mixture (20 μL) was injected onto HPLC, separation was made with C18 column (4.6×250 mm, 5 μm: Waters) and the detection was effected using a ultraviolet detector (RF-10A: Shimazu Seisakusho) at a wavelength of 280 nm. In the mobile phase, the flow rate was 0.6 mL/min and the concentration of buffer B was varied from 5.0% to 30% in 30 minutes (buffer A: 0.10% trifluoroacetic acid; buffer B: 80% acetonitrile containing 0.08% trifluoroacetic acid). 4-Hydroxy-3-nitrobenzoic acid (100 μM) was used as the internal standard.

[4] = Suppressive effect on the hydroxylation of phenylalanine with hydroxy radical; assay type: biochemical; settings: in comparison with pyridoxamine as positive control; 0.1, 0.5, 2.5 mM
Experimental: Phenylalanine (final concentration: 1 mM), test compound (final concentration: 0.1, 0.5, 2.5 mM), hydrogen peroxide (final concentration: 5 mM) and cupric sulfate (final concentration: 0.1 mM) were dissolved in 200 mM of phosphate buffer (pH7.4) (total volume 500 μL), followed by incubation at 37° C. for 4 hours. Then, DTPA (final concent-ration: 1 mM) and 260 unit of catalase were added thereto to interrupt the reaction. The amounts of o-tyrosine and m-tyrosine formed were determined by HPLC in the following manner: after a designed period of time, the reaction mixture was diluted to 100 folds; 20 μL of the dilution was injected onto HPLC, separation was made with C18 column (4.6×250 mm, 5 μm; Nomura Kagaku) and detection was effected using a fluorescence detector (RF-10A: Shimazu Seisakusho) under the condition of an excitation wavelength of 275 nm and a fluorescence wavelength of 305 nm. In the mobile phase, the flow rate was 0.6mL/min and the concentration of buffer B was varied from 6.5% to 10% in 25 minutes (buffer A: 0.10% trifluoroacetic acid; buffer B: 80% acetonitrile containing 0.08% trifluoroacetic acid).

Q: What does the source list for `c1ccc(-c2nnnn2CN2CCOCC2)cc1` [Compound 1, 4-(5-phenyltetrazol-1-ylmethyl)-morpholine]?
A: PLP trapping [1]: none; BUN [2]: BUN reducing effect; urinary protein [2]: urinary protein reducing effect; nitrotyrosine formation, suppression [3]: suppressed remarkably; hydroxylation of phenylalanine with hydroxy radical, suppression [4]: suppressed remarkably
